Laboratory results reported in paper PMC12248599, “Exploring the Bioavailability of Red Grape Skin Extract Polyphenols: A Caco-2 Cell Model Study” (Foods, 2025).
“And” between values parts separate entries of the source, which are not always exact repeats. Equal entries are not always repeated. Marks after values point to notes of the source that are not given here.

How the values were obtained:
[1] = Caco-2 monolayer transport (bioavailability) study, AB and BA directions; assay type: in vitro ADME, Homo sapiens; conditions: human
Protocol: (§1) A reversed phase C18 column (Luna 5 μm C18(2) 100 Å, LC Column 250 × 4.6 mm, Phenomenex) was used to separate the polyphenols at a flow rate of 0.7 mL/min with an injection volume of 60 µL. The detection was carried out at 520 nm for anthocyanins (M3G, D3G and Pet3G), at 328 nm for CA, at 356 nm for flavonols (Q3G, K3Gal and K3G) and at 280 nm for GA and SA. The mobile phases were (A) acetonitrile 100% and (B) water 0.1% trifluoroacetic acid (v/v). The gradient was programmed as follows: 10% A 0 min, 10–80% A (0–20 min), 80–100% A (20–25 min), 100% A (25–30 min); 10% A (30–35 min) and 10% A (35–40 min). Every polyphenol was quantified using the corresponding reference standard calibration curve. Each of the quantified phenolic compound concentration was expressed as mg/mL
(§2) For the transport experiment Caco-2 cells were cultured at a density of 4 × 10^4 cells/cm^2 in Transwell inserts (12 mm i.d., 1.12 cm^2 growth area, 0.4 µm mean pore size polycarbonate membranes, Corning Inc., Milwaukee, WI, USA) placed in 12-well plates. Caco-2 cells were grown in DMEM in an incubator at 37 °C in a humidified atmosphere containing 5% CO2.
(§3) Bioavailability studies were performed in triplicate after 21 days of cell growth. Only inserts with stable TEER values higher than ≥300 Ω cm^2 were considered acceptable to perform the bioavailability study. For that purpose, DMEM media was removed, the monolayer was washed with PBS and HBSS was supplied to the cells.
(§4) Likewise, the GSE stock solution was diluted in HBSS medium to prepare GSE solutions S1 and S2. GSE solutions S1 and S2 had concentrations of 15 mg/mL and 22 mg/mL, respectively. These concentrations were established considering previous studies with grape pomace extracts that concluded that intestinal concentrations of 1–2% (w/v) show potential bioactivities and are safe to be used as a food ingredient.
(§5) The apical side represents the intestinal lumen and the basolateral side represents the bloodstream. Each sample (100 µL) was immediately acidified with 1M HCl to a final concentration of 0.007 M and subsequently frozen at −20 °C until analysis by HPLC (according to the method described in Section 2.5). Each experiment was carried out on 3 individual wells. The transport efficiency (TE) percentage was calculated according to Equation (2):Transport efficiency (%) = (C/C0) × 100(2) where, C is the polyphenol concentration at the acceptor side over time and C0 is the initial concentration at the donor side. TE values were calculated for the nine polyphenols identified in the grape skin extract.
(§6) The apparent permeability coefficient (Papp) of the polyphenols in GSE was calculated for apical to basolateral side (AB) and basolateral to apical side (BA) flux studies according to Equation (3):Papp (cm/s) = (dQ/dt) × (VR/AC0)(3) where, dQ/dt is the permeability rate which means the steady-state linear rate of change of concentration (mg/L) per second (s) at the acceptor side; A is the surface area of the cell monolayer (1.12 cm^2). C0 is the initial concentration at the donor side (mg/L) at t = 0 s and VR is the volume of the solution of the acceptor side (mL).
(§7) The efflux ratio (ER) of the polyphenol was assessed by calculating the Equation (4):ER = Papp (BA)/Papp (AB)(4) where, Papp (BA) is the apparent permeability coefficient of the polyphenol from basolateral to apical side and Papp (AB) is the apparent permeability coefficient from apical to basolateral side. ER is a measure of the relative contributions of active and passive transport to bi-direction flux across the cell monolayer.

Caco-2 cell monolayer = test: as above; assay type: in vitro ADME, Homo sapiens; conditions: for reduction in concentration on the apical (donor) side: 0 to 180 min; for TE (%) transport efficiency: after 180 min
Protocol: as §1, §2, §3, §4, §5, §6, §7

Caco-2 cells = conditions: cited from earlier work
[2] = AB experiment, S2 (22 mg/mL GSE)
[3] = AB experiment, acceptor side, S2 (22 mg/mL GSE)
[4] = AB experiment, donor side, S1 (15 mg/mL GSE)
[5] = AB experiment, donor side, S2 (22 mg/mL GSE)
[6] = BA experiment, acceptor side, S1 (15 mg/mL GSE)
[7] = BA experiment, acceptor side, S2 (22 mg/mL GSE)
[8] = BA experiment, donor side, S1 (15 mg/mL GSE)
[9] = BA experiment, donor side, S2 (22 mg/mL GSE)

SMILES: COc1cc(-c2[o+]c3cc(O)cc(O)c3cc2O[C@@H]2O[C@H](CO)[C@@H](O)[C@H](O)[C@H]2O)cc(OC)c1O [M3G, malvidin-3-O-glucoside]
- efflux ratio at 180 min, 22 mg/mL ([1]; Caco-2, Papp (BA)/Papp (AB), S2 (22 mg/mL GSE), read-out: ER (efflux ratio)): > 1
- Papp A→B at 180 min, 22 mg/mL ([1]; Caco-2, apical to basolateral, S2 (22 mg/mL GSE)): 15 ± 1 ×10⁻⁶ cm/s
- Papp B→A at 180 min, 15 mg/mL ([1]; Caco-2, basolateral to apical, S1 (15 mg/mL GSE)): 33 ± 2 ×10⁻⁶ cm/s
- Papp B→A at 180 min, 22 mg/mL ([1]; Caco-2, basolateral to apical, S2 (22 mg/mL GSE)): 18 ± 1 ×10⁻⁶ cm/s
- reduction in concentration on the apical (donor) side (Caco-2 cell monolayer; AB experiment, S1 (15 mg/mL GSE)): 75 ± 2%
- reduction in concentration on the apical (donor) side (Caco-2 cell monolayer; [2]): 58 ± 3%
- TE (%) transport efficiency (Caco-2 cell monolayer; [2]): 1.08 ± 0.01%
- Basolateral Side 180 min (Caco-2 cell monolayer; AB experiment, acceptor side, S1 (15 mg/mL GSE)): undetectable
- Basolateral Side 75 min (Caco-2 cell monolayer; [3]): 0.12 ± 0.01 ^b mg/L
- Basolateral Side 90 min (Caco-2 cell monolayer; [3]): 0.13 ± 0.01 ^c,d mg/L
- Basolateral Side 115 min (Caco-2 cell monolayer; [3]): 0.14 ± 0.01 ^d,c mg/L
- Basolateral Side 180 min (Caco-2 cell monolayer; [3]): 0.15 ± 0.01 ^c mg/L
- Apical Side 0 min (Caco-2 cell monolayer; [4]): 6.1 ± 0.3 mg/L and 6.1 ± 0.3 ^a mg/L
- Apical Side 75 min (Caco-2 cell monolayer; [4]): 4.5 ± 0.2 ^b mg/L
- Apical Side 90 min (Caco-2 cell monolayer; [4]): 3.2 ± 0.1 ^c mg/L
- Apical Side 115 min (Caco-2 cell monolayer; [4]): 2.26 ± 0.06 ^d mg/L
- Apical Side 180 min (Caco-2 cell monolayer; [4]): 1.53 ± 0.04 mg/L and 1.53 ± 0.04 ^c mg/L
- Apical Side 0 min (Caco-2 cell monolayer; [5]): 14 ± 1 ^a mg/L
- Apical Side 75 min (Caco-2 cell monolayer; [5]): 11.6 ± 0.9 ^b mg/L
- Apical Side 90 min (Caco-2 cell monolayer; [5]): 9.2 ± 0.9 ^c mg/L
- Apical Side 115 min (Caco-2 cell monolayer; [5]): 7.2 ± 0.9 ^d mg/L
- Apical Side 180 min (Caco-2 cell monolayer; [5]): 6.0 ± 0.8 mg/L and 6.0 ± 0.8 ^d mg/L
- detection at the acceptor side (Caco-2 cell monolayer; AB experiments, basolateral side): detected
- TE (%) transport efficiency (Caco-2 cell monolayer; BA experiment, S2 (22 mg/mL GSE)): 1.73 ± 0.04%
- Apical Side 75 min (Caco-2 cell monolayer; [6]): 0.19 ± 0.02 ^a,b mg/L
- Apical Side 90 min (Caco-2 cell monolayer; [6]): 0.23 ± 0.02 ^b,c mg/L
- Apical Side 115 min (Caco-2 cell monolayer; [6]): 0.28 ± 0.02 ^c mg/L
- Apical Side 180 min (Caco-2 cell monolayer; [6]): 0.33 ± 0.02 ^c mg/L
- Apical Side 75 min (Caco-2 cell monolayer; [7]): 0.18 ± 0.01 ^b mg/L
- Apical Side 90 min (Caco-2 cell monolayer; [7]): 0.22 ± 0.01 ^c mg/L
- Apical Side 115 min (Caco-2 cell monolayer; [7]): 0.26 ± 0.01 ^d mg/L
- Apical Side 180 min (Caco-2 cell monolayer; [7]): 0.30 ± 0.01 ^c mg/L
- Basolateral Side 0 min (Caco-2 cell monolayer; [8]): 10.4 ± 0.7 ^a mg/L
- Basolateral Side 75 min (Caco-2 cell monolayer; [8]): 9.7 ± 0.6 ^b mg/L
- Basolateral Side 90 min (Caco-2 cell monolayer; [8]): 9.1 ± 0.6 ^c mg/L
- Basolateral Side 115 min (Caco-2 cell monolayer; [8]): 8.5 ± 0.6 ^d mg/L
- Basolateral Side 180 min (Caco-2 cell monolayer; [8]): 8.0 ± 0.6 ^c mg/L
- Basolateral Side 0 min (Caco-2 cell monolayer; [9]): 17.5 ± 0.4 ^a mg/L
- Basolateral Side 75 min (Caco-2 cell monolayer; [9]): 16.4 ± 0.4 ^b mg/L
- Basolateral Side 90 min (Caco-2 cell monolayer; [9]): 15.4 ± 0.3 ^c mg/L
- Basolateral Side 115 min (Caco-2 cell monolayer; [9]): 14.5 ± 0.3 ^c,d mg/L
- Basolateral Side 180 min (Caco-2 cell monolayer; [9]): 13.7 ± 0.2 ^c mg/L
- detection at the acceptor side (Caco-2 cell monolayer; BA experiments, apical side): detected
- transepithelial transport M3G efficiency (Caco-2 cells; Caco-2 cells, rabbiteye blueberry extract, depending on initial extract concentration, after 2 h): 6.93–7.31%
- M3G transport efficiency (Caco-2 cells; after 240 min): 0.35%

SMILES: COc1cc(-c2[o+]c3cc(O)cc(O)c3cc2O[C@@H]2O[C@H](CO)[C@@H](O)[C@H](O)[C@H]2O)cc(O)c1O [Pet3G, petunidin-3-O-glucoside]
- detection at the acceptor side of the Caco-2 cell monolayer (Caco-2 cell monolayer; AB and BA experiments): not detected
- Apical Side 0 min (Caco-2 cell monolayer; [4]): 1.8 ± 0.1 ^a mg/L
- Apical Side 75 min (Caco-2 cell monolayer; [4]): 1.4 ± 0.1 ^b mg/L
- Apical Side 90 min (Caco-2 cell monolayer; [4]): 1.2 ± 0.1 ^c mg/L
- Apical Side 115 min (Caco-2 cell monolayer; [4]): 1.02 ± 0.10 ^c,d mg/L
- Apical Side 180 min (Caco-2 cell monolayer; [4]): 0.9 ± 0.1 ^d mg/L
- Apical Side 0 min (Caco-2 cell monolayer; [5]): 4.4 ± 0.2 ^a mg/L
- Apical Side 75 min (Caco-2 cell monolayer; [5]): 4.0 ± 0.1 ^b mg/L
- Apical Side 90 min (Caco-2 cell monolayer; [5]): 3.7 ± 0.1 ^c mg/L
- Apical Side 115 min (Caco-2 cell monolayer; [5]): 3.33 ± 0.09 ^c mg/L
- Apical Side 180 min (Caco-2 cell monolayer; [5]): 3.16 ± 0.08 ^c mg/L
- Basolateral Side 0 min (Caco-2 cell monolayer; [8]): 4.3 ± 0.1 ^a mg/L
- Basolateral Side 75 min (Caco-2 cell monolayer; [8]): 4.0 ± 0.1 ^b mg/L
- Basolateral Side 90 min (Caco-2 cell monolayer; [8]): 3.8 ± 0.1 ^b,c mg/L
- Basolateral Side 115 min (Caco-2 cell monolayer; [8]): 3.65 ± 0.09 ^c,d mg/L
- Basolateral Side 180 min (Caco-2 cell monolayer; [8]): 3.49 ± 0.08 ^d mg/L
- Basolateral Side 0 min (Caco-2 cell monolayer; [9]): 3.1 ± 0.2 ^a mg/L
- Basolateral Side 75 min (Caco-2 cell monolayer; [9]): 3.0 ± 0.2 ^a mg/L
- Basolateral Side 90 min (Caco-2 cell monolayer; [9]): 2.9 ± 0.2 ^a mg/L
- Basolateral Side 115 min (Caco-2 cell monolayer; [9]): 2.7 ± 0.2 ^a mg/L
- Basolateral Side 180 min (Caco-2 cell monolayer; [9]): 2.7 ± 0.2 ^a mg/L
